Measured values taken from the supplement of paper PMC10307832.

What was measured:
Assay in all cases: relative viability (nuclei count vs DMSO), 5 days (fraction); higher = more cells survive
Bosutinib + Navitoclax = compound: COc1cc(Nc2c(C#N)cnc3cc(OCCCN4CCN(C)CC4)c(OC)cc23)c(Cl)cc1Cl [Bosutinib] + CC1(C)CCC(c2ccc(Cl)cc2)=C(CN2CCN(c3ccc(C(=O)NS(=O)(=O)c4ccc(N[C@H](CCN5CCOCC5)CSc5ccccc5)c(S(=O)(=O)C(F)(F)F)c4)cc3)CC2)C1 [Navitoclax] (partner 0.5 µM)
Procedure, shortened: (§1)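 Five library-drug doses in √10 steps were combined with a fixed anchor-drug dose, or a single drug was given alone, by pin tool to lung cancer cell lines in 1536-well plates the day after seeding. Nuclei were stained and counted after 5 days. Relative viability is the nuclei count in treated wells over that in vehicle wells, taken as the median of duplicate plates.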

Bosutinib + Pictilisib = compound: COc1cc(Nc2c(C#N)cnc3cc(OCCCN4CCN(C)CC4)c(OC)cc23)c(Cl)cc1Cl [Bosutinib] + CS(=O)(=O)N1CCN(Cc2cc3nc(-c4cccc5[nH]ncc45)nc(N4CCOCC4)c3s2)CC1 [Pictilisib] (partner 1 µM)
Procedure, shortened: as §1

Bosutinib + Decitabine = compound: COc1cc(Nc2c(C#N)cnc3cc(OCCCN4CCN(C)CC4)c(OC)cc23)c(Cl)cc1Cl [Bosutinib] + Nc1ncn([C@H]2C[C@H](O)[C@@H](CO)O2)c(=O)n1 [Decitabine] (partner 2 µM)
Procedure, shortened: as §1

Bosutinib + OSI-027 = compound: COc1cc(Nc2c(C#N)cnc3cc(OCCCN4CCN(C)CC4)c(OC)cc23)c(Cl)cc1Cl [Bosutinib] + COc1cccc2cc(-c3nc([C@H]4CC[C@H](C(=O)O)CC4)n4ncnc(N)c34)[nH]c12 [OSI-027] (partner 0.5 µM)
Procedure, shortened: as §1

Bosutinib = compound: COc1cc(Nc2c(C#N)cnc3cc(OCCCN4CCN(C)CC4)c(OC)cc23)c(Cl)cc1Cl [Bosutinib]
Procedure, shortened: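 A plate was accepted only when its control CV was below 25% and the cells had doubled at least once. Viability is defined from nuclear counts as treated wells divided by vehicle wells, with the median taken across plates. That median covers lung cancer cell lines grown in 1536-well plates, dosed by pinning at five √10-spaced library-drug concentrations, and counted in MetaXpress from 4× Hoechst images after 5 days.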

Cell Line | relative viability (Bosutinib + Navitoclax; first compound 0.01 µM) | relative viability (Bosutinib + Navitoclax; first compound 0.03162 µM) | relative viability (Bosutinib + Navitoclax; first compound 0.1 µM) | relative viability (Bosutinib + Navitoclax; first compound 1 µM) | relative viability (Bosutinib + Pictilisib; first compound 0.01 µM) | relative viability (Bosutinib + Pictilisib; first compound 0.03162 µM) | relative viability (Bosutinib + Pictilisib; first compound 0.1 µM) | relative viability (Bosutinib + Pictilisib; first compound 1 µM) | relative viability (Bosutinib + Decitabine; first compound 0.01 µM) | relative viability (Bosutinib + Decitabine; first compound 0.03162 µM) | relative viability (Bosutinib + Decitabine; first compound 0.1 µM) | relative viability (Bosutinib + Decitabine; first compound 1 µM) | relative viability (Bosutinib + OSI-027; first compound 0.01 µM) | relative viability (Bosutinib + OSI-027; first compound 0.03162 µM) | relative viability (Bosutinib + OSI-027; first compound 0.1 µM) | relative viability (Bosutinib + OSI-027; first compound 1 µM) | relative viability (Bosutinib; 0.01 µM) | relative viability (Bosutinib; 0.03162 µM) | relative viability (Bosutinib; 0.1 µM) | relative viability (Bosutinib; 1 µM)
201T | 1.2 | 1.2 | 1.2 | 1.14 | 0.685 | 0.653 | 0.66 | 0.615 | 0.892 | 0.874 | 0.848 | 0.821 | 0.874 | 0.712 | 0.725 | 0.633 | 1 | 0.991 | 1.02 | 0.906
A-427 | 0.947 | 0.97 | 1.05 | 0.888 | 0.724 | 0.801 | 0.874 | 0.736 | 0.596 | 0.56 | 0.617 | 0.612 | 0.489 | 0.498 | 0.553 | 0.48 | 0.979 | 1.04 | 1.03 | 0.926
ABC-1 | – | – | – | – | 0.836 | 0.85 | 0.841 | 0.596 | 1.21 | 1.22 | 0.997 | 0.807 | 0.507 | 0.471 | 0.432 | 0.577 | 0.976 | 0.99 | 0.854 | 0.88
BEN | 0.0464 | 0.0561 | 0.0932 | 0.0522 | 0.548 | 0.706 | 0.664 | 0.429 | 0.668 | 0.752 | 0.819 | 0.668 | 0.318 | 0.313 | 0.294 | 0.261 | 0.952 | 0.984 | 1.08 | 0.765
CAL-12T | 1.23 | 1.16 | 1.09 | 1.12 | 0.31 | 0.496 | 0.46 | 0.409 | – | – | – | – | 0.735 | 0.637 | 0.803 | 0.565 | 1.06 | 0.96 | 0.95 | 0.914
COR-L23 | 1.17 | 1.06 | 0.959 | 1.06 | 0.893 | 0.826 | 0.813 | 0.81 | 0.432 | 0.421 | 0.414 | 0.454 | 0.754 | 0.732 | 0.75 | 0.778 | 1.05 | 0.972 | 1.07 | 1.03
COR-L 105 | 0.808 | 0.825 | 0.84 | 0.492 | 0.423 | 0.442 | 0.387 | 0.393 | 0.642 | 0.608 | 0.72 | 0.47 | 0.623 | 0.669 | 0.698 | 0.479 | 0.974 | 0.861 | 0.914 | 0.735
ChaGo-K-1 | 0.602 | 1.33 | 1.31 | 1.56 | 0.544 | 1.05 | 1.06 | 1.14 | 0.496 | 0.536 | 0.511 | 0.518 | 0.568 | 0.501 | 0.576 | 0.647 | 0.966 | 0.976 | 1.01 | 0.997
EKVX | 0.882 | 0.929 | 0.914 | 0.807 | 0.427 | 0.469 | 0.41 | 0.309 | 0.382 | 0.38 | 0.311 | 0.336 | 0.79 | 0.764 | 0.654 | 0.55 | 0.927 | 0.971 | 0.952 | 0.85
EMC-BAC-2 | 1.2 | 1.1 | 1.15 | 1.15 | 0.576 | 0.507 | 0.52 | 0.506 | 0.963 | 0.967 | 0.992 | 0.988 | 0.388 | 0.383 | 0.385 | 0.37 | 0.95 | 1.09 | 1.09 | 0.928
EPLC-272H | 1.05 | 1.09 | 1.15 | 1.35 | 0.375 | 0.293 | 0.36 | 0.426 | 0.358 | 0.383 | 0.418 | 0.321 | 0.262 | 0.34 | 0.312 | 0.342 | 0.982 | 1.01 | 1.12 | 0.911
H3255 | 0.669 | 0.574 | 0.485 | 0.218 | 0.488 | 0.49 | 0.44 | 0.235 | – | 0.725 | 0.804 | 0.354 | 0.558 | 0.653 | 0.642 | 0.412 | 0.931 | 0.978 | 0.995 | 0.594
HARA | 1.16 | 1.1 | 1.12 | 1.19 | 0.442 | 0.453 | 0.45 | 0.352 | 0.581 | 0.547 | 0.618 | 0.489 | 0.497 | 0.512 | 0.503 | 0.344 | 1.07 | 1.02 | 0.993 | 0.791
HCC-15 | 0.707 | 0.715 | 0.741 | 0.689 | 0.799 | 0.829 | 0.725 | 0.773 | 0.653 | 0.659 | 0.659 | 0.609 | 0.736 | 0.622 | 0.648 | 0.734 | 1.05 | 1.03 | 1.06 | 0.926
HCC-44 | 1.03 | 0.926 | 0.969 | 0.849 | 0.723 | 0.548 | 0.587 | 0.632 | 0.97 | 0.995 | 0.971 | 0.987 | 0.525 | 0.673 | 0.594 | 0.571 | 0.99 | 1.02 | 1.02 | 1.01
HCC-78 | 0.798 | 0.737 | 0.752 | 0.661 | 0.2 | 0.196 | 0.269 | 0.301 | 0.768 | 0.698 | 0.761 | 0.676 | 0.361 | 0.362 | 0.353 | 0.358 | 0.906 | 1.2 | 1.08 | 0.902
HCC-366 | 1.08 | 1.05 | 0.997 | 0.49 | 0.154 | 0.144 | 0.181 | 0.121 | 0.348 | 0.365 | 0.312 | 0.265 | 0.981 | 0.898 | 0.821 | 0.405 | 0.991 | 1 | 0.974 | 0.785
HCC-827 | 1 | 0.986 | 1.04 | 0.933 | 0.971 | 0.763 | 1.12 | 0.749 | 0.306 | 0.37 | 0.404 | 0.186 | 0.784 | 0.828 | 0.872 | 0.574 | 1.07 | 1.05 | 1.09 | 0.649
HOP-62 | 0.901 | 0.982 | 1.04 | 1.09 | 0.898 | 0.787 | 0.698 | 0.819 | 0.208 | 0.215 | 0.209 | 0.253 | 0.801 | 0.848 | 0.942 | 0.875 | 0.977 | 1.01 | 0.959 | 1.05
IA-LM | 0.779 | 0.816 | 0.842 | 0.764 | – | 0.365 | 0.317 | 0.359 | – | – | – | – | – | – | – | – | 0.998 | 1.08 | 0.967 | 1.01
LC-2-ad | 0.476 | 0.54 | 0.52 | 0.468 | 0.571 | 0.45 | 0.459 | 0.419 | 0.797 | 0.849 | 0.875 | 0.784 | 0.878 | 0.917 | 0.806 | 0.847 | 0.961 | 1.08 | 1.06 | 1
LCLC-97TM1 | 0.541 | 0.464 | 0.595 | 0.483 | 0.182 | 0.221 | 0.254 | 0.267 | 0.249 | 0.262 | 0.215 | 0.271 | 0.545 | 0.609 | 0.548 | 0.56 | 1.03 | 0.969 | 1.06 | 1.04
LCLC-103H | – | – | – | – | 0.632 | 0.68 | 0.702 | 0.646 | 0.744 | 0.792 | 0.723 | 0.69 | 0.458 | 0.438 | 0.417 | 0.496 | 1.01 | 0.999 | 0.991 | 0.996
NCI-H358 | – | – | – | – | 0.407 | 0.368 | 0.363 | 0.379 | 0.211 | 0.213 | 0.209 | 0.218 | 0.786 | 0.742 | 0.787 | 0.545 | 0.964 | 0.913 | 0.961 | 0.685
NCI-H522 | – | – | – | – | – | – | – | – | 0.572 | 0.671 | 0.698 | 0.658 | 0.734 | 0.641 | 0.682 | 0.69 | 0.935 | 1.03 | 1.05 | 0.895
NCI-H650 | – | – | – | – | 0.913 | 0.878 | 0.914 | 0.997 | 0.327 | 0.295 | 0.29 | 0.419 | 0.634 | 0.502 | 0.588 | 0.628 | 1 | 1.06 | 1.08 | 1.11
NCI-H661 | – | – | – | – | 0.351 | 0.53 | 0.386 | 0.327 | 0.57 | 0.537 | 0.521 | 0.426 | 0.682 | 0.804 | 0.744 | 0.56 | 0.97 | 1.09 | 1.06 | 0.731
NCI-H1703 | 0.985 | 1.06 | 0.922 | 0.43 | 0.246 | 0.235 | 0.242 | 0.228 | – | – | – | – | – | – | – | – | 0.869 | 0.972 | 0.835 | 0.468
NCI-H2228 | 0.84 | – | 1.03 | 0.732 | 0.451 | – | 0.229 | 0.297 | – | – | – | – | 0.489 | 0.533 | 0.577 | 0.609 | 0.906 | 0.918 | 0.989 | 0.882
SW 900 | – | – | – | – | – | – | – | – | 0.408 | 0.438 | 0.427 | 0.424 | 0.51 | – | 0.591 | 0.455 | 0.856 | 0.706 | 0.801 | 0.815
